Measured values from patent US20040072201A1, “Methods of identifying compounds that inhibit nonstop degradation of mRNA” (priority 2002, published 2004).

Key:
nonstop-PGK1 transcripts = assay: nonstop-PGK1 mRNA stability (half-life by Northern blot) in yeast; type: cell-based, Saccharomyces cerevisiae; conditions: treatment with translation inhibitor
Description: In order to determine whether the presence of translational termination influences mRNA stability, we assayed PGK1 tran-scripts in Saccharomyces cerevisiae derived from the following constructs (3): wild-type PGK1 (WT-PGK1), a nonsense form of PGK1 harboring a PTC at codon 22 [PTC(22)-PGK1], and nonstop-PGK1 that was created by removing the bona fide termination codon and all in-frame termination codons in the 3′ UTR (untranslated region) from the WT-PGK1 transcript. Nonstop-PGK1 transcripts were as labile as their nonsense-containing counterparts. At least three trans-acting factors (Upf1p, Upf2p, and Upf3p) are essential for nonsense-mediated mRNA decay (NMD) in S. cerevisiae (4, 5). Remarkably, nonstop transcripts were not stabilized in strains lacking Upf1p, distinguishing the pathway of decay from NMD.
Additional experiments were performed to assess the role of translation in nonstop decay. […] It has been shown that translation into the 3′ UTR of selected transcripts can displace bound trans-factors that are positive determinants of message stability (13, 14). […]
27. […] Half-lives were determined by plotting the percent of mRNA remaining versus time on a semi-log plot. All half-lives were determined at 25° C. except for the ccr4Δ (performed at 30° C.) and dcp1-2 [performed after shift to the nonpermissive temp (37° C.) for 1 hour] experiments.

[1] = tested on: WT-PGK1 and Ter-poly(A)-PGK1 transcripts; assay: half-lives of WT-PGK1 and Ter-poly(A)-PGK1 transcripts in yeast treated with paromomycin; type: cell-based, Saccharomyces cerevisiae; conditions: 100 μg/ml CHX added during the last hour before half-life determination
Description: FIG. 2 depicts graphs of the half-lives of WT-PGK1 and Ter-poly(A)-PGK1 transcripts in wild-type-(WT) and SK17-deleted (ski7A) yeast strains treated with the indicated dose of paromomycin (mg/ml) (PM) for 20 hours. For cycloheximide (CHX) experiments, yeast were treated identically except 100 μg/ml of CHX was added during the last hour before half-life determination.
Any event that diminishes translational fidelity and promotes readthrough of termination codons could plausibly result in the generation of substrates for nonstop decay. In view of recent attempts to treat genetic disorders resulting from PTCs with long-term and high-dose aminoglycoside regimens, this may achieve medical significance. As a proof-of-concept experiment, we examined the performance of transcripts with one [Ter-poly(A)-PGK1] or multiple (WT-PGK1) in-frame termination codons (including those in the 3′ UTR) in yeast strains after treatment with paromomycin, which induces ribosomal readthrough.
27. All PGK1 minigene constructs were under the control of the GAL1 upstream activation sequence (UAS). […] Half-lives were determined by plotting the percent of mRNA remaining versus time on a semi-log plot. All half-lives were determined at 25° C. except for the ccr4Δ (performed at 30° C.) and dcp1-2 [performed after shift to the nonpermissive temp (37° C.) for 1 hour] experiments.

[2] = tested on: cultured chicken hepatocellular carcinoma cells; assay: ratio of truncated to full-length GHR transcripts after translational arrest; type: cell-based; conditions: after treatment with translational inhibitor
[3] = tested on: termination codon (UGA) in renilla luciferase ORF; assay: readthrough assay using a dual luciferase reporter construct; type: cell-based
Description: FIG. 3 depicts the results of a readthrough assay using a dual luciferase reporter construct.
This example describes a readthrough assay that uses a dual lucifierase reporter construct. The firefly luciferase ORF is wild-type while translation of the renilla luciferase ORF is prevented by the presence of a termination codon (UGA). Cells were either untreated or treated with siRNAs directed against RRP4, an essential component of the exosome.

**Q.** What does the source list for C[C@@H]1C[C@@H]([C@H](O)CC2CC(=O)NC(=O)C2)C(=O)[C@@H](C)C1 [cycloheximide]?
**A.** stability of nonstop-PGK1 transcripts (nonstop-PGK1 transcripts): substantially increased the stability; effect on paromomycin-induced decrease in stability of Ter-poly(A)-PGK1 and WT-PGK1 transcripts [1]: could be reversed

**Q.** For CC[C@H]1CN2CCc3cc(OC)c(OC)cc3[C@@H]2C[C@@H]1C[C@H]1NCCc2cc(OC)c(OC)cc21 [emetine], which “ratio of truncated-to-full-length GHR transcripts” value [2] is on record?
**A.** dramatically increased

**Q.** How did the “readthrough, renilla:firefly ratio” value ([3]; exosome function inhibited by siRNAs directed against RRP4, increasing concentrations) turn out when gentamycin was run?
**A.** dose-dependent increase in readthrough

**Q.** What about the “readthrough, renilla:firefly ratio” value ([3]; intact exosome function (control RNAi), increasing concentrations) of the same molecule?
**A.** do not result in a significant increase in readthrough
